Key:
[1] = system: Taxus chinensis var. mairei cell line 211; experiment: Content changes of baccatin III and paclitaxel for different treatment times of MeJA (LC-MS); assay type: cell-based; conditions: 100 μM MeJA
Description: (§1) Taxus chinensis var. mairei cell line 211 were divided into two groups: the experimental group (MeJA+) was soaked with 100 μM methyl jasmonate; the control group (MeJA−) was soaked with 0.05% ethanol solution. The experiments of the two groups were carried out at the same time, and the samples were collected after 0 h, 2 h, 3 h and 4 h respectively, for the analysis of the expression pattern of TcTSs gene and the content of baccatin III and paclitaxel, with three biological replicates.
The metabolites were extracted by the modified Wolfender method. The specific steps include: weighing 100 mg of lyophilized cell powder to place it in a 2 ml centrifuge tube, adding 1.5 ml of extraction buffer (methanol:water=80:20, v/v) and vortexing to suspend it, containing 500 ng/ml dexamethasone as the internal standard, after ultrasonic extraction for 30 min, centrifuging at 14,000 g for 15 min; the supernatant was centrifuged and dried in a vacuum concentrator (LABCONCO), and finally the sample was resuspended in 200 μL methanol solvent (80:20, v/v) for LCMS analysis. Samples were analyzed by LC-MS by using an ACQUITY UPLC I-Class/AB SCIEX (Waters) instrument.
The separation column was Waters (2.1×50 mm; ACQUITY UPLC™ Waters XselectHSS T3); the injection volume was 10 μL, and the flow rate was 0.2 mL/min.
The mobile phase composition: A was 0.1% formic acid methanol; B was 0.1% formic acid water.
The LC separation procedure was as follows: equilibrating with 40% A for 2 min, followed by gradient elution for 10 min to 100% B, maintaining for 2 min, and then returning to 40% A equilibration for 1 min. ESI ion source, positive ion mode. Data acquisition and processing were performed on AB SCIEXAnalyst 1.6.3 software (Applied Biosystems).

[2] = system: TcTS2 gene; experiment: Expression pattern of TcTS2 gene under MeJA stress (qPCR); assay type: cell-based, Taxus chinensis var. mairei; conditions: 100 μM MeJA, 4 h, 2^−ΔΔCt, reference TcACTIN1
Description: as §1
(§2) EASYspin Plant Total RNA Extraction Kit (Aidlab, Beijing) was used to extract and collect the total RNA of the samples with different treatment times. 1 μg of total RNA of different samples was respectively taken for the synthesis of the first-strand cDNA, using it as the template for real-time fluorescence quantitative PCR. Kit Hifair® III 1st Strand cDNA Synthesis (YEASEN, China) and qPCR fluorescent dye kit Hieff® qPCR SYBR® Green Master Mix (Low Rox Plus) (commercial reagents, purchased from YEASEN, China) were used for the first-strand cDNA synthesis. qPCR experiments were performed on the QuantStudio™ 3 system with 2 technical replicates and 3 biological replicates. Actin1 (TcACTIN1) gene of Taxus chinensis var. mairei was used as an internal reference gene, and the relative expression of TcTSs genes was calculated by using the 2^−ΔΔCt method.

[3] = system: TcTS1 gene; experiment: Expression pattern of TcTS1 gene under MeJA stress (qPCR); assay type: cell-based, Taxus chinensis var. mairei; conditions: 100 μM MeJA, 0-4 h, 2^−ΔΔCt, reference TcACTIN1
Description: as §1, §2

[4] = In vitro activity of TcTSs-His6 (GC-MS of enzymatic reaction product); assay type: biochemical, Taxus chinensis var. mairei; conditions: 100 μg purified protein, 100 μM GGPP, 32° C., 2 h
Description: The in vitro enzymatic reaction system was 500 μL, containing 100 μg purified protein, 100 μM GGPP (Sigma-Aldrich) and enzyme reaction buffer (25 mM, pH 8.5, 10% glycerol, 5 mM DTT, 5 mM ascorbate, 5 mM sodium metabisulfite and 1 mM MgCl2), the reaction mixture was covered with 500 μL of pentane (Macklin, GC-MS grade) and reacted in a 32° C. water bath for 2 h, vortexing for 2 min, centrifuging at 5000 rpm for 10 min; the pentane layer was taken out, putting into 2 mL of the sample, concentrating at low temperature by using a nitrogen blower; the product was analyzed by gas chromatography mass spectrometry (GC-MS) instrument.
The control group was the reaction product of purified recombinant protein TcTSs-His6 after being boiled at 100° C. for 10 min. The GC-MS instrument was Agilent 7890B/7000C (Agilent Technologies, Waldbronn, USA), mass spectrometry detector parameters: 70 eV, helium flow rate 1.2 mL/min, chromatographic column Agilent HP-5 MS (5% phenylmethyl silica, 30 m×250 μm inner diameter, 0.25 μm film thickness), the injection volume is 1-5 μL; the temperature program of the column oven is as follows: 45° C. for 1 min, then 10° C./min gradient increase to 250° C., and remaining at 250° C. for 5 min. […]

[5] = Kinetic constants of TcTSs-His6 ([1-3H]-GGPP, liquid scintillation counting); assay type: biochemical, Taxus chinensis var. mairei
Description: Kinetic parameter detection: standard enzymatic reaction with a total volume of 100 μL, containing enzyme reaction buffer (25 mM, pH 8.5, 10% glycerol, 5 mM DTT, 5 mM ascorbate, 5 mM sodium metabisulfite and 1 mM MgCl2), 34 μg (TcTS1-His6) or 18 μg (TcTS2-His6) recombinant protein, and […] concentrations of GGPP (0.2 μM, 0.5 μM, 1 μM, 2.5 μM, 5 μM, 10 μM, 25 μM, 50 μM) mixed with […] substrate (American Radiolabeled Chemicals, Inc, 30 Ci/mM).
Labeled [1-3H]-GGPP was diluted 400-fold with unlabeled GGPP (Sigma, 1 mg/mL). The reaction mixture was reacted at 32° C. for 30 min, then quenching with 100 μL of stop buffer (containing IM EDTA and 4M NaOH) for 10 min; the reaction mixture was extracted with 800 μL of n-hexane (vortexing for 2 min, centrifuging at 12,000 rpm for 10 min); 400 μL of n-hexane extract was taken to add into 2 mL of liquid scintillation cocktail to mix well. The total radioactivity of the reaction products was determined by using a liquid scintillation counter (Tri-Carb 2910TR, Perkin Elmer). Kinetic constants were calculated by nonlinear regression fitting of Michaelis-Menten equation through Origin 8.6 software.

[6] = substrate GGPP, 32° C., 30 min, Michaelis-Menten fit

| Molecule | increased fold of baccatin III as compared to the control group ([1]; 2 h) [times] | increased fold of paclitaxel as compared to the control group ([1]; 2 h) [times] | increase fold of baccatin III ([1]; 4 h) [times] | increase fold of paclitaxel ([1]; 4 h) [times] | induction fold of TcTS2 expression relative to 0 h [2] | expression of TcTS1 under MeJA stress [3] | main products taxa-4 (5), 11 (12)-diene (accounting for) [4] [%] | secondary products taxa-4 (20), 11 (12)-diene (accounting for) [4] [%] | catalytic efficiency relative to TcTS1-His6 (Kcat value) ([5]; from Kcat values) [times] | Ka [5, 6] [pM/µg/min] | Kcat [5, 6] [s⁻¹] |
| --- | --- | --- | --- | --- | --- | --- | --- | --- | --- | --- | --- |
| CC/C=C\CC1C(=O)CCC1CC(=O)OC (centres unmarked) [MeJA, methyl jasmonate] | 1.48 | 9.53 | 7.01 | 12.91 | 7 | up-regulated | – | – | – | – | – |
| TcTS2-His6: taxadiene synthase from Taxus chinensis var. mairei, amino acid sequence SEQ ID NO: 1 (protein, C-terminal His6 tag; Amino acid sequence of Taxadiene Synthase TcTS2) MSSSPTKLATENANAVAESNLIPRLSANYHGDLWHHGVIQTLQTPYQESSSYQERAEELIVKIKDMFKAVEEGAISPSAYDTAWVARVPDGSEKPRFPQALNWLLHNQLQDGSWGLESHFMLSDRLLSTLNSVISLLVWKTGQQQVEQGTLFITENLKLLEGEDELPPDFEIIFPALLQKAKALGMSLPDHDLPFIKSLSVAREARLASYTDNNIPASMLNALEGLEEVIDWDKIMRFQMPCLYSIDLLERLSLVDNIEHLGIGRHFKQEIKVALDYVYRYWSERGIGLGRDSLIPDLNTTALGLRTLRAHGYNVSSEVLNNFKDENGRFFSSLGQTHVELRSMVNLLRASDLAFPDEPLMDDAKIFAEAYLRDALATRISTNTKLFKEIDYAVEYPWHMSIPRLEARSYIDVYDDDYTWQNKTLYRMSNLSNAYCLELAKLDFNIVQSLHQEELKLLTRWWKESGMADINFTRHRVAEVYFSSATFEPEYSSTRIAFTKIGCLQVLFDDMADIFATLDELRDFTEGVKRWDTSLIHKLPDCMQTCFRVWFNLMEEVNNDVSNVQGRDMLNHIRKPWELYFNCYVQEREWLDAGYIPTLEEYLKTYSISVGLGPCTLQPILLMGDIVKDDVVEKVHYPSNLFELVSLSWRLTNDTKTYQAEKARGQQASGIACYMKDNPGSTEEDAIKYICGVVDRALKEACFEYFKPADDVPMSCKSFIFNLRLCVQIFYKFIDGYGIANEEIKDYIRKVYIEPIQV | – | – | – | – | – | – | 94 | 4 | 3 | 8.6 ± 1.5 | 0.00901 |

From patent US12104190B2, “Taxadiene synthase TcTS2, encoding nucleotide sequence and use thereof” (AGRICULTURAL GENOMICS INSTITUTE AT SHENZHEN, CHINESE …, priority 2020, dated 2024)
